Our source for the IC50 and inhibition values is patent publication US20030180797A1, “Identification of ligands for a receptor family and related methods” (priority 2002, published 2003).

“And” between values parts separate entries of the source, which are not always exact repeats. Equal values may be shown once.

Holding throughout (assay type): biochemical
Assay [1] deals with T1, E. coli DHPR enzyme (Escherichia coli, UniProt P04036). In words: Dihydrodipicolinate reductase (DHPR) kinetic spectrophotometric assay, NADPH oxidation at 340 nm. As to conditions: for IC50: bi-ligands and pyridine dicarboxylate derivatives, Example VII, FIG. 8. On the procedure: DHPR was diluted in 10 mM HEPES, pH 7.4. Dihydrodipicolinate synthase (DHPS) was not diluted and was stored in eppendorf tubes.
T1 sequence (P04036 whole entry): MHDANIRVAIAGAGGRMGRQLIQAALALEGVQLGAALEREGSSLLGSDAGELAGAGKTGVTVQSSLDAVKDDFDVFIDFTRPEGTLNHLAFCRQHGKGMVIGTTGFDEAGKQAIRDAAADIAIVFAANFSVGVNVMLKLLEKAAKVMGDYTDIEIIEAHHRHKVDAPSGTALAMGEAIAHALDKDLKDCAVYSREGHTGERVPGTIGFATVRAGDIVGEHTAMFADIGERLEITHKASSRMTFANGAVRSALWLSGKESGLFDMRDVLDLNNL
The L-aspartate semialdehyde (L-ASA) solution was prepared in the following manner. A 180 μM stock solution of ASA was prepared. 100 μl of the ASA stock solution was mixed with 150 μl of concentrated NaHCO3 and 375 μl of H2O. […] The L-ASA stock solution was kept at a temperature of −20° C. After dilution, the pH of the 28.8 mM solution was checked and maintained between pH 1 to 2.
The solution for background detection was a 945 μl solution containing 0.1 M HEPES, pH 7.8, 1 mM pyruvate, 6 μM NADPH, 40 μM L-ASA, and 7 μl of 1 mg/ml DHPS at 25° C. in the volumes indicated above. The sample solution was then mixed and incubated for 10 minutes. Inhibitor solutions (500 nM or 100 μM final concentration) and enough dimethylsulfoxide (DMSO) to provide a final DMSO concentration of 5% were added. The solution was mixed and incubated for an additional 6 minutes.
In DHPR samples, the DHPR stock solution was diluted and 5 μl of diluted E. coli DHPR enzyme (1:1000 dilution of 1 mg/ml stock) were added. The sample was mixed for 20 seconds, and then the reaction was run for […]. […] Reading of the samples was continued until 300 seconds.
For assaying bi-ligands, the substrate concentration and the NADPH or NADH concentration were kept near their Km values. […] If substrate mimics (specificity ligands) were tested, the NADPH or NADH concentration was increased.

The target of assay [2] is T1, E. coli DHPR enzyme. The description is as above. As to conditions: read-out: inhibition of DHPR activity.
The next assay concerns the target T2, LDH from Rabbit Muscle (Oryctolagus cuniculus, UniProt P13491).
T2 construct: 10 μl of diluted LDH from Rabbit Muscle; from tissue; host or cells: rabbit muscle
In words: Lactate dehydrogenase (LDH) kinetic spectrophotometric assay, NADH oxidation. As to conditions: Cibacron Blue at 10.3 mM; read-out: inhibition of LDH, positive control. As to the method: [table] […] These solutions were incubated for 6 minutes at 25° C. in 990 μl of a solution containing 0.1 M HEPES, pH 7.4, […], and 2.5 mM of pyruvate. The reaction was then initiated with 10 μl of diluted LDH from Rabbit Muscle (0.5 μg/ml; 1:2000 dilution of 1.0 mg/ml stock solution). […] Reading of the samples was continued until 300 seconds. […] When bi-ligands were screened, the substrate concentration and NADPH or NADH concentrations were kept near their Km values. […] If the compounds assayed were specificity ligands (substrate mimics), the NAPDH or NADH concentration was increased.

The target in the next assay is T3, ADH from Bakers Yeast (Saccharomyces cerevisiae, UniProt P00330).
T3 sequence (P00330 1-348): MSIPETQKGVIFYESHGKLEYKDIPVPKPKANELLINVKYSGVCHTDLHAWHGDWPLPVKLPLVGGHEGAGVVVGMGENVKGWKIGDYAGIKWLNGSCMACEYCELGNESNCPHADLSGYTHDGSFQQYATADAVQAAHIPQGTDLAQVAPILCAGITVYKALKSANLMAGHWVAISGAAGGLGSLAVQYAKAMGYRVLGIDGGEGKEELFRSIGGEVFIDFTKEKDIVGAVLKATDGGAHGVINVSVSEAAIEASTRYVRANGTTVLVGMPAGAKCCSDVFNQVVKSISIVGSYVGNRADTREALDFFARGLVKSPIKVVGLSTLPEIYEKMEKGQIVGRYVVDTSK
In words: Alcohol dehydrogenase (ADH) kinetic spectrophotometric assay, NAD+ reduction. As to conditions: Cibacron Blue at 15.5 μM; read-out: inhibition of ADH, positive control. As to the method:
Inhibitor solutions were prepared in DMSO so that, when diluted, the inhibitor concentration was 100 μM and the final DMSO concentration was adjusted to 5%. […] The reaction was then initiated with 10 μl of ADH from Bakers Yeast (Saccharomyces cerevisiae) (3.3 μg/ml; 1:400 dilution of 1.0 mg/ml). […] Reading of the samples was continued until 300 seconds.
Where only a simple read was desired, as in the case of NAD+ concentration determination, 13 μl (10 M stock) of ethanol was used to drive the reaction, and 10 μl of pure enzyme (1 mg/ml) was used. NAD+ was soluble at 2 mM. In this situation, the procedure was as follows. All of the ingredients except for the enzyme were mixed together. The solution was mixed well and the absorbance at 340 nm read. The enzyme was added and read again at OD 340 after the absorbance stopped changing, generally 10 to 15 minutes after the enzyme was added.

The next assay has as its target T4, human DHFR (Homo sapiens, UniProt P00374).
T4 sequence (P00374 1-187): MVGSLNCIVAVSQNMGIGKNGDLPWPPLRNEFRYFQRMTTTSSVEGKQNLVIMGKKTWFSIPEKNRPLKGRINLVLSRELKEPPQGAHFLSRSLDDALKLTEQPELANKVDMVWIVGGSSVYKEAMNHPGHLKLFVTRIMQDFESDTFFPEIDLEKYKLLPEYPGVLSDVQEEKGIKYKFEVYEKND
The assay can be described thus: Dihydrofolate reductase (DHFR) kinetic spectrophotometric assay. As to conditions: Cibacron Blue at 3 μM; read-out: inhibition of DHFR, positive control. As to the method: H2 folate was dissolved in DMSO to about 10 mM and then diluted with water to a concentration of 0.1 mM.
Inhibitor solutions were prepared in DMSO so that, when diluted, the inhibitor concentration was 100 μM and the final DMSO concentration was adjusted to 5%. […] The reaction was then initiated with 8 μl of human DHFR (0.047 mg/ml; 1:85 dilution of 4 mg/ml stock solution). After the enzyme was added, the reaction was run for 10 minutes.
(§1) When bi-ligands were screened, the substrate concentration and NADPH or NADH concentrations were kept near their Km values. When assaying common ligands (CLMs), the substrate concentration was increased to at least 10 times the Km. If the compounds assayed were specificity ligands (substrate mimics), the NAPDH or NADH concentration was increased.

Assay [3] has as its target DOXP reductoisomerase from E. coli (Escherichia coli, UniProt P45568). The assay can be described thus: 1-Deoxy-D-xylulose-5-phosphate reductoisomerase (DOXPR) kinetic spectrophotometric assay, NADPH oxidation. As to conditions: Cibacron Blue at 10.32 μM; read-out: inhibition of DOXPR, positive control. As to the method:
DOXPR was diluted in 10 mM HEPES, pH 7.4.
Solutions of the inhibitors in DMSO were prepared to provide a final DMSO concentration of 5%. […] 1.15 mM DOXP, and 8 μM NADPH. The reaction was then initiated with 10 μl of DOXP reductoisomerase (also known as DOXP reductase) from E. coli (10 μg/ml; 1:200 diilution of 2 mg/ml stock solution).
as §1

Sequence of DOXP reductoisomerase from E. coli (P45568 whole entry): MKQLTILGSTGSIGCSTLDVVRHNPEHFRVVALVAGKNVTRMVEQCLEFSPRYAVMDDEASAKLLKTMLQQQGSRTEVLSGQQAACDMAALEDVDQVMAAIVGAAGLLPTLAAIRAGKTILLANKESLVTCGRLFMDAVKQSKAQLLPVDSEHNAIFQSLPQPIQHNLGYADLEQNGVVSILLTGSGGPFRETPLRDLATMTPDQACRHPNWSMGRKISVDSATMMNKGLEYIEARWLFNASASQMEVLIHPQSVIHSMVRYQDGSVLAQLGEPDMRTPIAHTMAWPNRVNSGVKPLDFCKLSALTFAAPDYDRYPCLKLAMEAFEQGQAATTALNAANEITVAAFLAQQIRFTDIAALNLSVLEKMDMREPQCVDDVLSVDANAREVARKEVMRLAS

At E. coli DHPR enzyme [1], `O=C1NC(=O)C(=Cc2ccc(-c3ccc(O)c(C(=O)NCCSc4cc(C(=O)O)nc(C(=O)O)c4)c3)o2)S1` [compound 12f, 4-(2-{5-[5-(2,4-dioxo-thiazolidin-5-ylidenemethyl)-furan-2-yl]-2-hydroxy-benzoylamino}-ethylsulfanyl)-pyridine-2,6-dicarboxylic acid] showed an IC50 of about 4.91 µM. Compound `O=C(NCCSc1cc(C(=O)O)nc(C(=O)O)c1)c1ccccc1` [compound 23, 4-(2-benzoylamino-ethylsulfanyl)-pyridine-2,6-dicarboxylic acid] came in with a half-maximal inhibitory concentration (IC50) on E. coli DHPR enzyme [1] of 78.3 µM. On the same count and under the same terms, to `O=C1NC(=S)SC1=Cc1ccc(-c2ccc(C(=O)NCCSc3cc(C(=O)O)nc(C(=O)O)c3)cc2)o1` [compound 12b, 4-(2-{4-[5-(4-oxo-2-thioxo-thiazolidin-5-ylidenemethyl)-furan-2-yl]-benzoylamino}-ethylsulfanyl)-pyridine-2,6-dicarboxylic acid] belongs about 7.1 µM; to `N=C1NC(=O)C(=Cc2cccc(C(=O)NCCSc3cc(C(=O)O)nc(C(=O)O)c3)c2)S1` [compound 16b, 4-{2-[3-(2-imino-4-oxo-thiazolidin-5-ylidenemethyl)-benzoylamino]-ethylsulfanyl}-pyridine-2,6-dicarboxylic acid], about 1.02 µM. Still for that read-out and setting: the value for `O=C(NCCSc1cc(C(=O)O)nc(C(=O)O)c1)c1ccc(-c2ccc(-c3nc4cc([N+](=O)[O-])ccc4[nH]3)o2)cc1` [compound 21a, 4-(2-{4-[5-(5-nitro-1H-benzoimidazol-2-yl)-furan-2-yl]-benzoylamino}-ethylsulfanyl)-pyridine-2,6-dicarboxylic acid] was about 0.758 µM. On to `O=C1NC(=O)C(=Cc2ccc(-c3cccc(C(=O)NCCSc4cc(C(=O)O)nc(C(=O)O)c4)c3)o2)S1` [compound 12c, 4-(2-{3-[5-(2,4-dioxo-thiazolidin-5-ylidenemethyl)-furan-2-yl]-benzoylamino}-ethylsulfanyl)-pyridine-2,6-dicarboxylic acid], for which, on E. coli DHPR enzyme [1], the IC50 is about 13 µM. On to `N=C1NC(=O)C(=Cc2ccc(C(=O)NCCSc3cc(C(=O)O)nc(C(=O)O)c3)cc2)S1` [compound 16c, 4-{2-[4-(2-imino-4-oxo-thiazolidin-5-ylidenemethyl)-benzoylamino]-ethylsulfanyl}-pyridine-2,6-dicarboxylic acid], for which the IC50 against E. coli DHPR enzyme [1] was about 33 µM. Same read-out and setting: the value for `O=C1NC(=S)SC1=Cc1ccc(-c2cccc(C(=O)NCCSc3cc(C(=O)O)nc(C(=O)O)c3)c2)o1` [compound 12d, 4-(2-{3-[5-(4-oxo-2-thioxo-thiazolidin-5-ylidenemethyl)-furan-2-yl]-benzoylamino}-ethylsulfanyl)-pyridine-2,6-dicarboxylic acid] was about 0.254 µM; that for `N=C1NC(=O)C(=Cc2ccc(O)c(C(=O)NCCSc3cc(C(=O)O)nc(C(=O)O)c3)c2)S1` [compound 16a, 4-{2-[2-hydroxy-5-(2-imino-4-oxo-thiazolidin-5-ylidenemethyl)-benzoylamino]-ethylsulfanyl}-pyridine-2,6-dicarboxylic acid] was ~8.2 µM and ~15.5 µM. For the compound `O=C(O)c1cc(SCCNC(=O)c2cc3cccc(O)c3cc2O)cc(C(=O)O)n1` [compound 24, 4-{2-[(3,5-dihydroxy-naphthalene-2-carbonyl)-amino]-ethylsulfanyl}-pyridine-2,6-dicarboxylic acid], the IC50 at E. coli DHPR enzyme [1] came out at 2 µM. Regarding `CC(=O)NCCSc1cc(C(=O)O)nc(C(=O)O)c1` [compound 22, 4-(2-acetylamino-ethylsulfanyl)-pyridine-2,6-dicarboxylic acid], at E. coli DHPR enzyme [2], the inhibition at 800 µM was about 31%. `Nc1c(S(=O)(=O)O)cc(Nc2ccc(Nc3nc(Cl)nc(Nc4ccccc4S(=O)(=O)O)n3)c(S(=O)(=O)O)c2)c2c1C(=O)c1ccccc1C2=O` [Cibacron Blue]: the inhibition at 10300 µM on LDH from Rabbit Muscle lay within 50 to 70%. In addition, the inhibition at 15.5 µM at ADH from Bakers Yeast was 50 to 60%. Moreover, at human DHFR, the inhibition at 3 µM is 50 to 70%. In addition, the inhibition at 10.32 µM in assay [3] fell in the range of 70 to 80%. The inhibition at 2580 µM at E. coli DHPR enzyme [1] (read-out: inhibition of DHPR, positive control) was in the range of 70 to 80%. For `O=C1NC(=O)C(=Cc2ccc(-c3ccc(C(=O)NCCSc4cc(C(=O)O)nc(C(=O)O)c4)cc3)o2)S1` [compound 12a, 4-(2-{4-[5-(2,4-dioxo-thiazolidin-5-ylidenemethyl)-furan-2-yl]-benzoylamino}-ethylsufanyl)-pyridine-2,6-dicarboxylic acid], on E. coli DHPR enzyme [1], the IC50 was about 0.536 µM.

As a reminder, the IC50 is the midpoint of a concentration-inhibition curve. Low readings indicate greater potency, high ones weaker potency. As a reminder, the inhibition is the drop in the measured response relative to a control, in per cent.
